Several values for one entry are separate records, joined by “and”; a condition that tells them apart may be missing. Equal values may be shown once. Toxic doses and inconclusive results are not listed. Cut-off read from the data, not from the text of the source: active = T/C of 150% or more; inactive = T/C below 125%.
Test system: L1210 leukemia ip in BDF1 mice, survival T/C
Assay: NCI In Vivo Anticancer Drug Screen. Data for tumor model L1210 Leukemia (intraperitoneal) in B6D2F1 (BDF1) mice
Settings: endpoint: mean survival time, higher = longer survival
Procedure, shortened: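 Read-out is survival time, reported as the treated-group measurement over the vehicle-control measurement.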

[1] = dose: 100.0 mg/kg/injection, schedule: Q04DX003 (ip), vehicle: saline with Tween-80
[2] = dose: 200.0 mg/kg/injection, schedule: Q04DX003 (ip), vehicle: saline with Tween-80
[3] = dose: 400.0 mg/kg/injection, schedule: Q04DX003 (ip), vehicle: saline with Tween-80
[4] = dose: 50.0 mg/kg/injection, schedule: Q01DX009 (ip), vehicle: Klucel (hydroxypropylcellulose) (HPC)
[5] = dose: 100.0 mg/kg/injection, schedule: Q01DX009 (ip), vehicle: Klucel (hydroxypropylcellulose) (HPC)
[6] = dose: 200.0 mg/kg/injection, schedule: Q01DX009 (ip), vehicle: Klucel (hydroxypropylcellulose) (HPC)
[7] = dose: 400.0 mg/kg/injection, schedule: Q01DX009 (ip), vehicle: Klucel (hydroxypropylcellulose) (HPC)
[8] = dose: 100.0 mg/kg/injection, schedule: Q01DX009 (ip), vehicle: saline with Tween-80
[9] = dose: 100.0 mg/kg/injection, schedule: Q04DX003 (ip), vehicle: saline
[10] = dose: 200.0 mg/kg/injection, schedule: Q01DX009 (ip), vehicle: saline with Tween-80
[11] = dose: 200.0 mg/kg/injection, schedule: Q04DX003 (ip), vehicle: saline
[12] = dose: 400.0 mg/kg/injection, schedule: Q01DX009 (ip), vehicle: saline with Tween-80
[13] = dose: 400.0 mg/kg/injection, schedule: Q04DX003 (ip), vehicle: saline
[14] = dose: 100.0 mg/kg/injection, schedule: Q04DX002 (ip), vehicle: Klucel (hydroxypropylcellulose) (HPC)
[15] = dose: 200.0 mg/kg/injection, schedule: Q04DX002 (ip), vehicle: Klucel (hydroxypropylcellulose) (HPC)
[16] = dose: 100.0 mg/kg/injection, schedule: Q04DX003 (ip), vehicle: Klucel (hydroxypropylcellulose) (HPC)
[17] = dose: 200.0 mg/kg/injection, schedule: Q04DX003 (ip), vehicle: Klucel (hydroxypropylcellulose) (HPC)
[18] = dose: 400.0 mg/kg/injection, schedule: Q04DX003 (ip), vehicle: Klucel (hydroxypropylcellulose) (HPC)
[19] = dose: 400.0 mg/kg/injection, schedule: Q04DX002 (ip), vehicle: Klucel (hydroxypropylcellulose) (HPC)
[20] = dose: 100.0 mg/kg/injection, schedule: Q01DX001 (ip), vehicle: saline
[21] = dose: 200.0 mg/kg/injection, schedule: Q01DX001 (ip), vehicle: saline
[22] = dose: 400.0 mg/kg/injection, schedule: Q01DX001 (ip), vehicle: saline
[23] = dose: 100.0 mg/kg/injection, schedule: Q01DX001 (ip), vehicle: other
[24] = dose: 200.0 mg/kg/injection, schedule: Q01DX001 (ip), vehicle: other
[25] = dose: 400.0 mg/kg/injection, schedule: Q01DX001 (ip), vehicle: other

Measured: T/C

c1ccc(C2=NC3CCCCC3N=C2c2ccccc2)cc1 (stereo unspecified)
inactive: [1] 101 % of control | [2] 95 % of control | [3] 96 % of control

C/C(N=Nc1ccc([N+](=O)[O-])cc1)=N\Nc1ccccc1
inactive: [4] 102 % of control | [5] 107 % of control | [6] 112 % of control | [7] 97 % of control

C1CCCC(=NN=C2CCCCCCC2)CCC1
inactive: [8] 89 % of control | [9] 95 % of control | [10] 93 % of control | [11] 89 % of control | [12] 89 % of control | [13] 95 % of control

CN(C)C(=N)CSS(=O)(=O)O
inactive: [14] 90 % of control | [15] 101 % of control

CCOc1ccc(NC(=O)C=O)cc1
inactive: [5] 92 % of control | [16] 94 % of control | [6] 103 % of control | [17] 94 % of control | [7] 105 % of control | [18] 97 % of control

COc1cc2c(cc1OC)C(OC)N(C)c1c-2ccc2cc3c(cc12)OCO3 (stereo unspecified)
inactive: dose: 5.0 mg/kg/injection, schedule: Q01DX009 (ip), vehicle: Klucel (hydroxypropylcellulose) (HPC) 106 % of control | dose: 10.0 mg/kg/injection, schedule: Q01DX009 (ip), vehicle: Klucel (hydroxypropylcellulose) (HPC) 106 % of control | dose: 10.0 mg/kg/injection, schedule: Q01DX009 (ip), vehicle: saline 123 % of control | dose: 20.0 mg/kg/injection, schedule: Q01DX009 (ip), vehicle: Klucel (hydroxypropylcellulose) (HPC) 95 % of control | dose: 20.0 mg/kg/injection, schedule: Q04DX003 (ip), vehicle: saline 123 % of control | dose: 40.0 mg/kg/injection, schedule: Q01DX009 (ip), vehicle: Klucel (hydroxypropylcellulose) (HPC) 113 % of control | dose: 40.0 mg/kg/injection, schedule: Q04DX003 (ip), vehicle: saline 121 % of control | dose: 80.0 mg/kg/injection, schedule: Q01DX009 (ip), vehicle: Klucel (hydroxypropylcellulose) (HPC) 111 % of control | dose: 80.0 mg/kg/injection, schedule: Q04DX003 (ip), vehicle: saline 124 % of control | [14] 118 % of control and 119 % of control | [16] 116 % of control | dose: 160.0 mg/kg/injection, schedule: Q01DX009 (ip), vehicle: Klucel (hydroxypropylcellulose) (HPC) 109 % of control | dose: 160.0 mg/kg/injection, schedule: Q04DX003 (ip), vehicle: saline 112 % of control | [6] 122 % of control | [15] 123 % of control | [17] 111 % of control | dose: 320.0 mg/kg/injection, schedule: Q01DX009 (ip), vehicle: Klucel (hydroxypropylcellulose) (HPC) 111 % of control | [7] 124 % of control | [18] 106 % of control
active: dose: 20.0 mg/kg/injection, schedule: Q01DX009 (ip), vehicle: steriod suspending solution 163 % of control | [19] 152 % of control

CCC(C)(OC(=O)c1ccc([N+](=O)[O-])cc1)C(C)C (stereo unspecified)
inactive: dose: 75.0 mg/kg/injection, schedule: Q04DX002 (ip), vehicle: saline with Tween-80 95 % of control | dose: 150.0 mg/kg/injection, schedule: Q04DX002 (ip), vehicle: saline with Tween-80 91 % of control

Nc1nc2c([nH]c(=O)n2C2OC(CO)C(O)C2O)c(=O)n1N (stereo unspecified)
inactive: [20] 102 % of control | [21] 101 % of control | [22] 96 % of control

COC(=O)c1nc(Cl)nc(S(C)(=O)=O)c1Cl
inactive: dose: 12.5 mg/kg/injection, schedule: Q01DX009 (ip), vehicle: Klucel (hydroxypropylcellulose) (HPC) 109 % of control | dose: 25.0 mg/kg/injection, schedule: Q01DX009 (ip), vehicle: Klucel (hydroxypropylcellulose) (HPC) 103 % of control | [4] 103 % of control and 89 % of control | [5] 92 % of control

CCOc1ccc([N+](=O)[O-])cc1
inactive: [14] 100 % of control | [15] 91 % of control | [19] 103 % of control

CCCCCCCCCCCCCCCCOC(=O)CC(=O)OCCCCCCCCCCCCCCCC
inactive: [23] 86 % of control | [24] 100 % of control | [25] 108 % of control

Cc1ccc(Oc2c3c(nc4ccccc24)CCCC3)cc1
inactive: [5] 104 % of control | [16] 101 % of control | [6] 98 % of control | [17] 96 % of control | [7] 96 % of control | [18] 93 % of control

CC(C)c1ccc(/C=N\[N+](C)(C)C)cc1
inactive: [9] 101 % of control | [11] 95 % of control

Cc1ccc2cccc(CC(=O)O)c2c1
inactive: dose: 100.0 mg/kg/injection, schedule: Q01DX005 (ip), vehicle: saline with Tween-80 104 % of control | [8] 96 % of control | dose: 200.0 mg/kg/injection, schedule: Q01DX005 (ip), vehicle: saline with Tween-80 112 % of control | [10] 96 % of control | dose: 400.0 mg/kg/injection, schedule: Q01DX005 (ip), vehicle: saline with Tween-80 108 % of control | [12] 115 % of control

CC(C)=CCCC(C)C1CCC2C3CC=C4CC(O)CCC4(C)C3CCC12C (stereo unspecified)
inactive: dose: 100.0 mg/kg/injection, schedule: Q01DX001 (ip), vehicle: saline with Tween-80 91 % of control | dose: 200.0 mg/kg/injection, schedule: Q01DX001 (ip), vehicle: saline with Tween-80 95 % of control | dose: 400.0 mg/kg/injection, schedule: Q01DX001 (ip), vehicle: saline with Tween-80 95 % of control

NC(=O)N=C(N)N
inactive: [20] 92 % of control | [21] 90 % of control | [22] 92 % of control

O=C(OC1CCCCC1)c1ccccc1-c1ccccc1C(=O)OC1CCCCC1
inactive: [23] 91 % of control | [24] 91 % of control | [25] 86 % of control

CC(=O)n1c2ccccc2c2ccccc21
inactive: dose: 100.0 mg/kg/injection, schedule: Q04DX002 (ip), vehicle: gum acacia 95 % of control | dose: 200.0 mg/kg/injection, schedule: Q04DX002 (ip), vehicle: gum acacia 88 % of control | dose: 400.0 mg/kg/injection, schedule: Q04DX002 (ip), vehicle: gum acacia 100 % of control

Cc1cc(C)c(C(O)C(=O)O)c(C)c1 (stereo unspecified)
inactive: dose: 75.0 mg/kg/injection, schedule: Q01DX001 (ip), vehicle: saline 108 % of control | dose: 150.0 mg/kg/injection, schedule: Q01DX001 (ip), vehicle: saline 97 % of control | dose: 300.0 mg/kg/injection, schedule: Q01DX001 (ip), vehicle: saline 101 % of control

CC(=O)n1cc(/C=C2\N=C(c3ccccc3)OC2=O)c2ccccc21
inactive: [5] 94 % of control | [6] 96 % of control | [7] 94 % of control

CC1CCC(O)C1O (stereo unspecified)
inactive: dose: 100.0 mg/kg/injection, schedule: Q01DX009 (ip), vehicle: saline 105 % of control | [9] 94 % of control | dose: 200.0 mg/kg/injection, schedule: Q01DX009 (ip), vehicle: saline 105 % of control | [11] 97 % of control | dose: 400.0 mg/kg/injection, schedule: Q01DX009 (ip), vehicle: saline 102 % of control | [13] 97 % of control

O=C(O)Cn1c(=O)n(CC(=O)O)c2ccccc21
inactive: [1] 93 % of control | [2] 98 % of control | [3] 98 % of control

CSCCC(NC(=O)c1ccccc1)C(N)=O (stereo unspecified)
inactive: [8] 90 % of control | [10] 89 % of control

CCCCCCC(C)Cl (stereo unspecified)
inactive: [8] 105 % of control | [10] 108 % of control | [12] 106 % of control

Cc1ccc(OCCOc2ccc(C(=O)O)cc2)cc1
inactive: [16] 95 % of control | [17] 101 % of control | [18] 101 % of control

From PubChem BioAssay AID248 (DTP/NCI, 2004)
